For eight molecules, TGI results are on record in PubChem BioAssay (NCI).

Each structure is given as a SMILES string.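 Dose response: 5 concentrations. Exposure: 48 h. Format: 96-well plates. Endpoint: linear interpolation; highest concentration if not reached. TGI: concentration producing complete growth inhibition.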

Holding throughout (experiment): NCI anticancer screen, dose series, 48 h
For test [1], the system named is OVCAR-4 ovarian.
The subject of test [2] is UO-31 renal.
The subject of test [3] is LOX IMVI melanoma.
In test [4] the test system is NCI-H23 lung.
Test [5] deals with HCT-116 colon.
Test [6] has as its system KM12 colon.
The subject of test [7] is SR leukemia.
For test [8], the system named is EKVX NSCLC.
The subject of test [9] is IGROV1 ovarian.
Test [10] relates to M14 melanoma.
In test [11] the test system is ACHN renal.
Test [12] concerns NCI-H522 lung.
In test [13] the test system is SN12C renal.
In test [14] the test system is MALME-3M melanoma.
In test [15] the test system is NCI-H460 lung.
In test [16] the test system is COLO 205 colon.
In test [17] the test system is SK-MEL-5 melanoma.

For the molecule `NC(=S)N/N=C(/CCN1CCCC1)CC(C1=C(O)C2=CCCCC2OC1=O)c1ccccc1` (stereo not drawn), the TGI in [1], in [2], in test [3], in test [4], in [5] and in test [6] was over 100 µM in each case. In addition, the TGI in test [7], in [8], in [9], in test [10], in [11] and in test [12] was over 100 µM each time. Also, the TGI in [13], in test [14], in test [15], in test [16] and in test [17] was over 100 µM each time.
In the case of `Cc1ccc([N+](=O)[O-])cc1NC(=O)/C(CC(=O)c1sc(C(N)=S)nc1C)=N\N`, the TGI in [1] was over 100 µM; in [2], over 100 µM; in test [3], over 100 µM; in test [4] it was 83.8 µM; in test [5], over 100 µM; in test [6], over 100 µM. Besides, the TGI in test [7] is over 100 µM; in test [8], over 100 µM; in test [9], over 100 µM; in [10] it was over 100 µM; in test [11], over 100 µM; in test [12], 76.4 µM. Also, the TGI in [14], in [15] and in test [17] was over 100 µM in each case.
Regarding `COc1ccc(C2S/C(=C\c3ccc([N+](=O)[O-])cc3)C(=O)N2NC(=O)Cc2ccccc2)cc1` (stereo not drawn), the TGI in test [1], in [2], in test [3], in test [4], in test [5] and in [6] was over 100 µM throughout. Moreover, the TGI in test [7], in test [9], in [10], in test [11], in test [12] and in [13] was over 100 µM each time. Further, the TGI in [14], in [15], in test [16] and in test [17] was over 100 µM each time.
For the molecule `CN(C)CCSC(=Nc1ccccc1)n1cccc1`, the TGI in test [1], in [2], in test [3], in test [4], in test [5] and in test [6] was over 100 µM throughout. In addition, the TGI in test [7], in test [9], in test [10], in [11], in [12] and in test [13] was over 100 µM in each case. For the same molecule, the TGI in test [14], in test [15], in test [16] and in test [17] was over 100 µM in each case.
In the case of `COc1ccc(/C=N/NC(=O)CSc2nc(-c3ccccc3)c(-c3ccccc3)[nH]2)cc1OC`, the TGI in [1] is 87.4 µM; in [2], 69.7 µM; in [3], 44.8 µM; in test [4], 76.7 µM; in [5], 87.2 µM; in test [6], 34 µM. For the same molecule, the TGI in test [8] is 72.5 µM; in [9], 55.5 µM; in test [10], 33.8 µM; in [11], 77.2 µM; in test [12], 39.9 µM; in test [13], 94.4 µM. For the same molecule, the TGI in test [14] was determined as 35.8 µM; in test [15], 91.6 µM; in test [16] it was 49.2 µM; in [17], 31.3 µM.
Consider `COc1cc2c(cc1OC)C(Cc1cc(Br)c(OC)c(OC)c1)=[N+](C)CC2`, for which the TGI in [1], in test [2], in test [3], in test [4], in test [5] and in test [6] was over 100 µM each time. The TGI in [8], in test [9], in test [10], in test [11], in test [12] and in test [13] was over 100 µM in each case. The TGI in test [14], in test [15], in [16] and in [17] was over 100 µM each time.
As for `COC(=O)[C@H]1C2CC[C@@H]3C45C[C@@H](c6ccoc6)O[C@@H]4O[C@@H](O2)C31CCC5C` (stereo partly drawn), the TGI in test [1], in test [2], in [3], in test [4], in [5] and in [6] was over 100 µM throughout. For the same molecule, the TGI in test [8], in test [9], in [10], in test [11], in test [12] and in test [13] was over 100 µM throughout. The TGI in [14], in test [15], in [16] and in [17] was over 100 µM each time.
For the molecule `N#CC(C(=S)Nc1ccccc1)=C1Nc2ccccc2N1`, the TGI in test [1], in test [2], in test [3], in test [4], in test [5] and in test [6] was over 10 µM in each case. Also, the TGI in test [7], in test [8], in test [10], in test [11], in test [12] and in [13] was over 10 µM throughout. The TGI in test [14], in test [15], in test [16] and in [17] was over 10 µM throughout.
